Reference: article PMC12290687, “Phenotypic Screening of the MMV Global Health Priority Box Identifies Selective Compounds with Anti-Toxoplasma gondii Activity” (ACS Omega, 2025)
Where two headings read alike, the source gives them in different places.

Legend:
[1] = test system: H. contortus; set-up: method as in Shanley et al. (2024); conditions: ref Shanley et al. (2024); cited from earlier work
[2] = test system: T. gondii intracellular tachyzoites; assay: microbe, parasite or virus in culture; type: cell-based, Toxoplasma gondii RH-2F1; conditions: half effective concentration against T. gondii intracellular tachyzoites in HFF, MOI 1:1, 72 h, duplicates in three independent experiments
Method: (§1) Toxoplasma gondii RH-2F1 tachyzoites, which express β-galactosidase, were maintained in human foreskin fibroblasts (HFFs). HFFs were cultured in Dulbecco’s Modified Eagle Medium (DMEM) supplemented with 10% fetal bovine serum (FBS), 2 mM L-glutamine, and 40 μg/mL gentamicin (referred to as D10) and incubated at 37 °C in a 5% CO2 humidified atmosphere. For infection assays, confluent monolayers were maintained in DMEM with 2% FBS (D2) prior to parasite inoculation.
(§2) For in vitro assays in 96-well plates, HFFs were seeded at 5 × 10^3 cells/well in the D10 medium and incubated for 12–16 h to allow adherence. […] For antiparasitic assays, HFFs were infected with RH-2F1 tachyzoites at a multiplicity of infection (MOI) of 1:1 for 3 h.
Parasite proliferation was assessed by quantifying β-galactosidase activity, as previously described. Briefly, after the 72 h incubation, cells were lysed in 100 μL of lysis buffer (100 mM HEPES pH 7.5, 1 mM MgSO4, 0.1% Triton X-100, 5 mM DTT) for 15 min at room temperature. […] Following a 30 min incubation at 37 °C, absorbance was measured at 570 nm using a Varioskan LUX microplate reader (Thermo Scientific). Each assay included viability controls (untreated infected cells), solvent controls (1% DMSO), a positive control (1 μM pyrimethamine), and experimental blanks (no cells). All conditions were tested in two biological replicates in three independent experiments.
Compounds from the GHPB library were screened at a final concentration of 1 μM in infected HFF monolayers, using the β-galactosidase assay as a readout for parasite viability after 72 h.

[3] = Cytotoxicity assay (resazurin reduction) in uninfected HFFs; type: cell-based, human; conditions: human
Method: as §1, §2
(§3) The resazurin assay was used to evaluate the compound cytotoxicity in uninfected HFFs. Following 72 h treatment, 100 μM resazurin was added to each well and incubated for 4 h at 37 °C. Fluorescence was measured using excitation/emission wavelengths of 565/590 nm. Controls included untreated cells (viability control), 1% DMSO (solvent control), 50 μM pyrimethamine (reference drug), and blank wells (no cells). Each condition was tested in duplicate in three independent experiments.

[4] = test system: P. falciparum ring stages; conditions: literature report, reference mark not given; cited from earlier work
[5] = test system: human foreskin fibroblasts (HFF); assay: Cytotoxicity assay (resazurin reduction) in uninfected HFFs; type: cell-based; conditions: half cytotoxic concentration against HFF, 72 h, highest concentration tested 50 μM
Method: as §1, §2, §3

[6] = test system: Plasmodium liver stages; conditions: literature report, reference mark not given; cited from earlier work
[7] = test system: VERO/RAW cells; set-up: method as in Tali et al.; conditions: ref Tali et al.; cited from earlier work
[8] = test system: HEK293 cell line; set-up: method as in Timoumi et al.; conditions: ref Timoumi et al.; cited from earlier work
[9] = test system: HepG2 cell line; set-up: method as in Timoumi et al.; conditions: ref Timoumi et al.; cited from earlier work
[10] = set-up: method as in Timoumi et al.; conditions: doses of 350–500 mg/kg; ref Timoumi et al.; cited from earlier work
[11] = uninfected human foreskin fibroblasts (HFF), half cytotoxic concentration against HFF, 72 h, highest concentration tested 50 μM, read-out: CC50 (μM) ± SD

In the case of `COc1cc(/C=N/c2c(SC(F)(F)F)c(C#N)nn2-c2c(Cl)cc(C(F)(F)F)cc2Cl)ccc1O` [MMV1794214, Vaniliprole], the “effect on H. contortus” value [1] is given as “impairs motility and larval development”, the EC50 ([2]; Toxoplasma gondii) is given as 0.07 ± 0.04 µM and the CC50 at 72 h [3] is given as > 50 µM.

In the case of `CCc1nc(N)nc(N)c1-c1ccc(Cl)cc1` [Pyrimethamine, reference compound], the EC50 ([2]; Toxoplasma gondii) is reported as 0.38 ± 0.03 µM and the CC50 at 72 h [3, 11] is reported as > 50 µM.

For `CCOc1ccccc1NC(=O)Cn1c(=O)n(Cc2ccccc2)c(=O)c2c(C)c(C(=O)N(C)C)sc21` [MMV006430], the “time to activity against P. falciparum ring stages (fast-acting)” value [4] is given as “under 65 h”, the EC50 ([2]; Toxoplasma gondii) is given as 0.3 ± 0.03 µM and the CC50 at 72 h [3, 11] is given as > 50 µM.

For `O=C(Nc1ncccc1O)c1ccc(N2CCOCC2)nc1` [MMV1103183], the EC50 [2] was 0.72 ± 0.39 µM and the CC50 [5] was > 50 µM.

Compound `O=C(Nc1ccc(Cl)c(C(F)(F)F)c1)Nc1ccc(Cl)c(C(F)(F)F)c1` [MMV027339] has an EC50 [2] of 0.5 ± 0.02 µM and a CC50 [5] of 5.51 ± 0.86 µM.

For `CS(=O)(=O)c1ccc(-c2cnn3c2NC(c2cccc(S(=O)(=O)C4CC4)c2)CC3)cc1` (stereo not shown) [MMV674132], the “time to activity against P. falciparum ring stages (fast-acting)” value [4] is given as “under 65 h”, the “activity against Plasmodium liver stages” value [6] is given as “activity” and the EC50 ([2]; Toxoplasma gondii) is given as 0.19 ± 0.04 µM. For the same compound, the CC50 at 72 h [3, 11] was > 50 µM.

In the case of `O=C(Nc1ncccc1O)c1ccc(Cn2cccn2)cc1` [MMV1266067], the EC50 [2] is reported as 0.73 ± 0.13 µM and the CC50 [5] is reported as > 50 µM.

In the case of `Cn1c(O)c(C(=O)Nc2ccc(Cl)c(Cl)c2)c(=O)n(C)c1=O` [MMV1634081], the EC50 [2] is reported as 0.52 ± 0.01 µM and the CC50 [5] is reported as 30.8 ± 4.55 µM.

Work on `O=C(Nc1ncccc1O)c1ccc(S(=O)(=O)NCCc2cccs2)cc1` [MMV1435700] yielded an EC50 [2] of 0.34 ± 0.08 µM and a CC50 [5] of 20 ± 3.8 µM.

With `CN(C)C1CC(NC(=O)c2ccc(Nc3nccc(-c4ccc(Cl)c(C(F)(F)F)c4)n3)cc2)C1` (stereo not shown) [MMV884814] the EC50 [2] was 0.76 ± 0.06 µM and the CC50 [5] was 4.1 ± 1.18 µM.

In the case of `CO/C=C(/C(=O)OC)c1ccccc1COc1c(C)c(-c2ccc(C)cc2C)nn1C` [MMV1794211], the CC50 [7] is listed as > 10000 nM and the EC50 ([2]; Toxoplasma gondii) is listed as 0.01 ± 0.01 µM.

In the case of `Cn1ccnc1SCC(=O)Nc1ccc(C(=O)Nc2ncccc2O)cc1` [MMV1267536], the “activity against Plasmodium liver stages” value [6] is listed as “activity”, the EC50 ([2]; Toxoplasma gondii) is listed as 0.19 ± 0.03 µM and the CC50 at 72 h [3, 11] is listed as 29.2 ± 2.79 µM.

In the case of `O=C(NC(=O)c1ccccc1Cl)Nc1ccc(OC(F)(F)F)cc1` [MMV689404, Triflumuron], the CC50 [8] is listed as 200000 nM, the CC50 [9] is listed as 120000 nM and the “in vivo toxicity finding” value [10] is listed as “hepatotoxicity and oxidative stress”. For the same compound, the EC50 ([2]; Toxoplasma gondii) was 0.49 ± 0.03 µM and the CC50 at 72 h ([3]; half cytotoxic concentration against HFF, 72 h, highest concentration tested 50 μM, read-out: CC50 (μM) ± SD) was > 50 µM.
